Test system: PD-1, LAG3 and TIM3 expression by CD3+ T cells
Assay: Cell-based assay of immune checkpoint expression by T lymphocytes (flow cytometry)
Design: species or system human
Settings: for PD-1, LAG3 and TIM3 expression by CD3+ T cells: PBMC activated with CD3/CD28 antibodies-coated beads, stimulated for 3 days, FIG. 4; for co-expression profile of PD-1, LAG3 and TIM3 immune checkpoint receptors on activated CD3+ T cells: healthy donors PBMC, FIG. 5, representative of n=6
From the text: PBMC were obtained from human healthy donors (Etablissement Français du Sang, Toulouse, France) after Ficoll-Hypaque (GE Healthcare) density centrifugation and cultured in RPMI 1640 medium (ThermoFisher Scientific) supplemented with 10% fetal bovine serum (ThermoFisher Scientific) and L-glutamine (SIGMA Aldrich).
Cell-Based Assay of Immune Checkpoint Expression by T Lymphocytes.
PBMC isolated from healthy donors were activated with CD3/CD28 antibodies-coated beads (ThermoFisher Scientific). When drugs were used (A-92 (1 μM) or GSK2606414 (GSK, 10 μM)), they were added simultaneously to the stimulation. After 3 days of in vitro culture, cells were processed for qRT-PCR, immunoblotting or flow cytometry analysis.

Compound	PD-1, LAG3 and TIM3 expression by CD3+ T cells (A-92 1 μM)	co-expression profile of PD-1, LAG3 and TIM3 immune checkpoint receptors on activated CD3+ T cells (A-92 1 μM)	PD-1, LAG3 and TIM3 expression by CD3+ T cells (GSK2606414 10 μM)	co-expression profile of PD-1, LAG3 and TIM3 immune checkpoint receptors on activated CD3+ T cells (GSK2606414 10 μM)
c1nn(C2CCOCC2)cc1Nc1ncc2nnn(-c3ccc4cn[nH]c4c3)c2n1 [A-92, 3-(1H-indazol-6-yl)-N-[1-(oxan-4-yl)pyrazol-4-yl]triazolo[4,5-d]pyrimidin-5-amine]	impair immune checkpoints expression	impair immune checkpoints expression simultaneously	–	–
Cn1cc(-c2ccc3c(c2)CCN3C(=O)Cc2cccc(C(F)(F)F)c2)c2c(N)ncnc21 [GSK2606414, 1-[5-(4-amino-7-methylpyrrolo[2,3-d]pyrimidin-5-yl)-2,3-dihydroindol-1-yl]-2-[3-(trifluoromethyl)phenyl]ethanone]	–	–	impair immune checkpoints expression	impair immune checkpoints expression simultaneously

— patent publication US20220040183A1, “USE OF INHIBITORS OF STRESS GRANULE FORMATION FOR TARGETING THE REGULATION OF IMMUNE RESPONSES” (INSERM (Institut National de la Santé et de la Recherche …, priority 2018, published 2022)
